According to ChEMBL document CHEMBL5380800, “Discovery of Small-Molecule Autophagy Inhibitors by Disrupting the Protein-Protein Interactions Involving Autophagy-Related 5” (J Med Chem, 2023):

Tested on: not listed separately
Assay: Inhibition of ATG5-ATG16L1 (unknown origin) protein protein interaction expressed in Escherichia coli BL21 (DE3) by HTRF method
Design: species or system Homo sapiens
Conditions: read-out: IC50

IC50 [µM] | SMILES
> 33 | O=C(O)c1ccc(N2C(=O)/C(=C/c3ccc(-c4ccc(Cl)cc4)o3)C=C2c2ccccc2)cc1
2.29 | O=C(O)c1ccc(CN2C(=O)/C(=C/c3ccc(-c4ccc([N+](=O)[O-])cc4)o3)C=C2c2ccccc2)cc1
> 33 | O=C(O)c1cccc(CN2C(=O)/C(=C/c3ccc(-c4ccc([N+](=O)[O-])cc4)o3)C=C2c2ccccc2)c1
26.9 | CC(=O)c1ccc(-c2ccc(/C=C3\C=C(c4ccccc4)N(Cc4ccc(C(=O)O)cc4)C3=O)o2)cc1
27.4 | CC(=O)c1cccc(-c2ccc(/C=C3\C=C(c4ccccc4)N(Cc4ccc(C(=O)O)cc4)C3=O)o2)c1
25 | COc1ccc(-c2ccc(/C=C3\C=C(c4ccccc4)N(c4ccc(C(=O)O)cc4)C3=O)o2)cc1
> 33 | NC(=O)c1ccc(-c2ccc(/C=C3\C=C(c4ccccc4)N(Cc4ccc(C(=O)O)cc4)C3=O)o2)cc1
17 | O=C(O)c1ccc(N2C(=O)/C(=C/c3ccc(-c4ccc5nonc5c4)o3)C=C2c2ccccc2)cc1
> 33 | O=C(O)c1ccc(N2C(=O)/C(=C/c3ccc(-c4ccc(O)cc4)o3)C=C2c2ccccc2)cc1
12.8 | CC(=O)Nc1ccc(-c2ccc(/C=C3\C=C(c4ccccc4)N(Cc4ccc(C(=O)O)cc4)C3=O)o2)cc1

Continued, compound first:

SMILES | IC50 [µM]
CC1=NN(c2ccc(-n3cnnn3)cc2)C(=O)/C1=C\c1ccc(-c2cc(C)c(C)cc2[N+](=O)[O-])o1 | > 33
Cc1cc(-c2ccc(CC3C(=O)N(c4ccc(C(=O)O)cc4)N=C3C3CC3)s2)c([N+](=O)[O-])cc1C (stereo not drawn) | > 33
O=C(O)CCN1C(=O)/C(=C/c2ccc(-c3ccc([N+](=O)[O-])cc3Cl)o2)SC1=S | 16
Cc1cc(-c2ccc(/C=C3\C(=O)N(c4ccc(C(=O)O)cc4)N=C3C3CC3)s2)c(C(F)(F)F)cc1C | > 33
CC1=NN(c2ccc(C(=O)O)cc2)C(=O)/C1=C\c1ccc(-c2ccc([N+](=O)[O-])cc2)s1 | 5.24
CC1=NN(c2ccc(C(=O)O)cc2)C(=O)/C1=C\c1ccc(-c2cc(C)c(C)cc2C(F)(F)F)o1 | > 33
O=C(O)CCN1C(=O)/C(=C/c2ccc(-c3ccc([N+](=O)[O-])cc3)o2)C=C1c1ccccc1 | > 100
CC1=NN(c2ccc(C(=O)O)cc2)C(=O)/C1=C\c1ccc(-c2cc(C)c(C)cc2[N+](=O)[O-])s1 | 11.6
O=C(O)c1ccc(N2C(=O)/C(=C/c3ccc(-c4cncnc4)s3)C=C2c2ccccc2)cc1 | > 11
CC1=NN(c2ccc(C(=O)O)cc2)C(=O)/C1=C\c1ccc(-c2cc(C)c(C)cc2[N+](=O)[O-])o1 | > 33
O=C(O)CCN1C(=O)/C(=C/c2cc([N+](=O)[O-])ccc2OCc2ccccc2Cl)SC1=S | 16
Cc1cc(-c2ccc(/C=C3\C(=O)N(c4ccc(C(=O)O)cc4)N=C3C3CC3)s2)c([N+](=O)[O-])cc1C | 22.3
CCN(CC)CCCC(C)Nc1ccnc2cc(Cl)ccc12 (stereo not drawn) [CHLOROQUINE] | 37
O=C(O)c1ccc(N2C(=O)/C(=C/c3ccc(-c4cc(F)c(F)c(F)c4)s3)C=C2c2ccccc2)cc1 | 12
O=C(O)CCN1C(=O)/C(=C\c2ccc(-c3ccc([N+](=O)[O-])cc3)o2)SC1=S | 27
CC1=NN(c2ccc(C(=O)O)cc2)C(=O)/C1=C\c1ccc(-c2cccc([N+](=O)[O-])c2)s1 | 11.2

Tested on: not listed separately
Assay: Inhibition of ATG5-TECAIR (unknown origin) protein protein interaction expressed in Escherichia coli BL21 (DE3) by HTRF method
Design: species or system Homo sapiens
Conditions: read-out: IC50

IC50 [µM] | SMILES
17 | O=C(O)c1ccc(N2C(=O)/C(=C/c3ccc(-c4ccc(Cl)cc4)o3)C=C2c2ccccc2)cc1
3.68 | O=C(O)c1ccc(CN2C(=O)/C(=C/c3ccc(-c4ccc([N+](=O)[O-])cc4)o3)C=C2c2ccccc2)cc1
21.3 | O=C(O)c1cccc(CN2C(=O)/C(=C/c3ccc(-c4ccc([N+](=O)[O-])cc4)o3)C=C2c2ccccc2)c1
16.3 | CC(=O)c1ccc(-c2ccc(/C=C3\C=C(c4ccccc4)N(Cc4ccc(C(=O)O)cc4)C3=O)o2)cc1
14.9 | CC(=O)c1cccc(-c2ccc(/C=C3\C=C(c4ccccc4)N(Cc4ccc(C(=O)O)cc4)C3=O)o2)c1
16 | COc1ccc(-c2ccc(/C=C3\C=C(c4ccccc4)N(c4ccc(C(=O)O)cc4)C3=O)o2)cc1
> 33 | NC(=O)c1ccc(-c2ccc(/C=C3\C=C(c4ccccc4)N(Cc4ccc(C(=O)O)cc4)C3=O)o2)cc1
12 | O=C(O)c1ccc(N2C(=O)/C(=C/c3ccc(-c4ccc5nonc5c4)o3)C=C2c2ccccc2)cc1
> 33 | O=C(O)c1ccc(N2C(=O)/C(=C/c3ccc(-c4ccc(O)cc4)o3)C=C2c2ccccc2)cc1
12 | CC(=O)Nc1ccc(-c2ccc(/C=C3\C=C(c4ccccc4)N(Cc4ccc(C(=O)O)cc4)C3=O)o2)cc1

Continued, compound first:

SMILES | IC50 [µM]
CC1=NN(c2ccc(-n3cnnn3)cc2)C(=O)/C1=C\c1ccc(-c2cc(C)c(C)cc2[N+](=O)[O-])o1 | > 33
Cc1cc(-c2ccc(CC3C(=O)N(c4ccc(C(=O)O)cc4)N=C3C3CC3)s2)c([N+](=O)[O-])cc1C (stereo not drawn) | > 33
O=C(O)CCN1C(=O)/C(=C/c2ccc(-c3ccc([N+](=O)[O-])cc3Cl)o2)SC1=S | 23
Cc1cc(-c2ccc(/C=C3\C(=O)N(c4ccc(C(=O)O)cc4)N=C3C3CC3)s2)c(C(F)(F)F)cc1C | > 33
CC1=NN(c2ccc(C(=O)O)cc2)C(=O)/C1=C\c1ccc(-c2ccc([N+](=O)[O-])cc2)s1 | 6.08
CC1=NN(c2ccc(C(=O)O)cc2)C(=O)/C1=C\c1ccc(-c2cc(C)c(C)cc2C(F)(F)F)o1 | 31.1
O=C(O)CCN1C(=O)/C(=C/c2ccc(-c3ccc([N+](=O)[O-])cc3)o2)C=C1c1ccccc1 | 17.2
CC1=NN(c2ccc(C(=O)O)cc2)C(=O)/C1=C\c1ccc(-c2cc(C)c(C)cc2[N+](=O)[O-])s1 | 11.9
O=C(O)c1ccc(N2C(=O)/C(=C/c3ccc(-c4cncnc4)s3)C=C2c2ccccc2)cc1 | > 11
CC1=NN(c2ccc(C(=O)O)cc2)C(=O)/C1=C\c1ccc(-c2cc(C)c(C)cc2[N+](=O)[O-])o1 | > 33
O=C(O)CCN1C(=O)/C(=C/c2cc([N+](=O)[O-])ccc2OCc2ccccc2Cl)SC1=S | 26
Cc1cc(-c2ccc(/C=C3\C(=O)N(c4ccc(C(=O)O)cc4)N=C3C3CC3)s2)c([N+](=O)[O-])cc1C | > 33
CCN(CC)CCCC(C)Nc1ccnc2cc(Cl)ccc12 (stereo not drawn) [CHLOROQUINE] | 28
O=C(O)c1ccc(N2C(=O)/C(=C/c3ccc(-c4cc(F)c(F)c(F)c4)s3)C=C2c2ccccc2)cc1 | 22
O=C(O)CCN1C(=O)/C(=C\c2ccc(-c3ccc([N+](=O)[O-])cc3)o2)SC1=S | 19
CC1=NN(c2ccc(C(=O)O)cc2)C(=O)/C1=C\c1ccc(-c2cccc([N+](=O)[O-])c2)s1 | 23

Tested on: COS-7
Assay: Inhibition of autophagy in African green monkey COS-7 cells at 20 uM by flow cytometry analysis relative to control
Type: functional
Conditions: Chlorocebus aethiops

SMILES | inhibition at 20 µM [%]
O=C(O)c1ccc(N2C(=O)/C(=C/c3ccc(-c4ccc(Cl)cc4)o3)C=C2c2ccccc2)cc1 | 98.2
O=C(O)c1ccc(CN2C(=O)/C(=C/c3ccc(-c4ccc([N+](=O)[O-])cc4)o3)C=C2c2ccccc2)cc1 | 5.88
O=C(O)c1cccc(CN2C(=O)/C(=C/c3ccc(-c4ccc([N+](=O)[O-])cc4)o3)C=C2c2ccccc2)c1 | 8.1
CC(=O)c1ccc(-c2ccc(/C=C3\C=C(c4ccccc4)N(Cc4ccc(C(=O)O)cc4)C3=O)o2)cc1 | 14.6
COC(=O)c1cccc(CN2C(=O)/C(=C/c3ccc(-c4ccc([N+](=O)[O-])cc4)o3)C=C2c2ccccc2)c1 | 78.4
COc1ccc(-c2ccc(/C=C3\C=C(c4ccccc4)N(c4ccc(C(=O)O)cc4)C3=O)o2)cc1 | 96.6
O=C(O)CCN1C(=O)/C(=C/c2ccc(-c3ccc([N+](=O)[O-])cc3)o2)C=C1c1ccccc1 | 21.4
NC(=O)c1ccc(-c2ccc(/C=C3\C=C(c4ccccc4)N(Cc4ccc(C(=O)O)cc4)C3=O)o2)cc1 | 38.9
CCCCN1C(=O)/C(=C/c2ccc(-c3ccc([N+](=O)[O-])cc3)o2)C=C1c1ccccc1 | 77.8
O=C(O)c1ccc(N2C(=O)/C(=C/c3ccc(-c4cncnc4)s3)C=C2c2ccccc2)cc1 | 95.6
O=C(O)c1ccc(N2C(=O)/C(=C/c3ccc(-c4ccc5nonc5c4)o3)C=C2c2ccccc2)cc1 | 94.7
CCOC(=O)CN1C(=O)/C(=C/c2ccc(-c3ccc([N+](=O)[O-])cc3)o2)C=C1c1ccccc1 | 79
O=C1/C(=C/c2ccc(-c3ccc([N+](=O)[O-])cc3)o2)C=C(c2ccccc2)N1Cc1ccccc1Br | 82.5
O=C(O)c1ccc(N2C(=O)/C(=C/c3ccc(-c4cc(F)c(F)c(F)c4)s3)C=C2c2ccccc2)cc1 | 97.6
O=C(O)c1ccc(N2C(=O)/C(=C/c3ccc(-c4ccc(O)cc4)o3)C=C2c2ccccc2)cc1 | 97.1
CC(=O)Nc1ccc(-c2ccc(/C=C3\C=C(c4ccccc4)N(Cc4ccc(C(=O)O)cc4)C3=O)o2)cc1 | 5.02
